This is an account of results in article PMC6934184, “Selective DNA-PKcs inhibition extends the therapeutic index of localized radiotherapy and chemotherapy” (The Journal of Clinical Investigation, 2019).

Broadly, the inhibition is the relative decrease from the control value, in per cent. Low values mean little suppression, high ones strong suppression.

The experiment concerns the target T1, INSRR (IRR) (Homo sapiens, UniProt P14616).
T1 construct: purchased Thermo Fisher Scientific (Life Technologies) SelectScreen
Nature of the experiment: SelectScreen Z'LYTE. Type of experiment: biochemical. The essentials: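 NU5455 was profiled across the SelectScreen Broad panel of kinase activity and binding assays. Z'LYTE reactions such as CSF1R ran at apparent Km ATP, while the Adapta CAMK1 assay used ATP listed as 10. Values are given as percent.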

T1 sequence (P14616 27-1297): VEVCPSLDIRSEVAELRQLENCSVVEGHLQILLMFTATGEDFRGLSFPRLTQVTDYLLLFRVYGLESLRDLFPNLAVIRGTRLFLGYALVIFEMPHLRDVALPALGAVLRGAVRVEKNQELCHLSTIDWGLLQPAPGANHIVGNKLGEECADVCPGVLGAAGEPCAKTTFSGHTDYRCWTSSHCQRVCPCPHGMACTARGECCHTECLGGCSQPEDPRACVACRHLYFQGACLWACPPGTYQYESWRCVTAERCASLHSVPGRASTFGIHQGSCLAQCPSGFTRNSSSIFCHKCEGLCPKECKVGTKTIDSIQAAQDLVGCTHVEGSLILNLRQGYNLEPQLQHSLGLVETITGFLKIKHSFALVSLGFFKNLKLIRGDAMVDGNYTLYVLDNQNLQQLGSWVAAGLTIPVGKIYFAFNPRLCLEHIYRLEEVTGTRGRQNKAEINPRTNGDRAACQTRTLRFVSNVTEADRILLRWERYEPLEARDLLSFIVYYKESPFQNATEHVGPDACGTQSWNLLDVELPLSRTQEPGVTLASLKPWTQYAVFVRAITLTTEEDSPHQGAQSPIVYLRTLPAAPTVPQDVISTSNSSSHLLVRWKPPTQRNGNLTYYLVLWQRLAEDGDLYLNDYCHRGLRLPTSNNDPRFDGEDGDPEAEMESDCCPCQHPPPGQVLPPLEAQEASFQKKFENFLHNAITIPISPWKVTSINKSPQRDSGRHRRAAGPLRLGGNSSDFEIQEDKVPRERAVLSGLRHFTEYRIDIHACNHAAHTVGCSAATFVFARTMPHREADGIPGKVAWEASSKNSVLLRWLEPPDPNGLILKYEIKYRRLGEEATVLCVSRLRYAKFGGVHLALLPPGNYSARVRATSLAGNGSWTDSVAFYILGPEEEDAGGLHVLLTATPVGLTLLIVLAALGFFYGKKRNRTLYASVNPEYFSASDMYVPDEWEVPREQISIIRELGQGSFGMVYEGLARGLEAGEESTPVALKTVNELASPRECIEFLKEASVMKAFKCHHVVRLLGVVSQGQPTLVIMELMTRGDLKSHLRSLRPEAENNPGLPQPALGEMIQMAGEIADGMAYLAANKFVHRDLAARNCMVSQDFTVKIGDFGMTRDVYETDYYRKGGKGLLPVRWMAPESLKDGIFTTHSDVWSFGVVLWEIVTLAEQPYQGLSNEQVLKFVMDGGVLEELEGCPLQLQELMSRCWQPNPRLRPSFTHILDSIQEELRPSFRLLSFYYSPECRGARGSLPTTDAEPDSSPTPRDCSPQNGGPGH

With `CN(C(=O)CN1CCOCC1)c1ccc2sc3c(-c4cccc5c(=O)cc(N6CC7CCC(C6)O7)oc45)cccc3c2c1` [NU5455], the inhibition at 1 µM stood at 14.1%.
